From patent publication US20240245658A1, “TAAR1 AND SEROTONIN MODULATORS, AND PHARMACEUTICAL COMPOSITIONS, AND METHODS OF USE THEREOF” (Sunovion Pharmaceuticals Inc., priority 2021, published 2024)
Where two headings read alike, the source gives them in different places.

Key:
Format in all cases: cell-based
human 5-HT2A receptor = target: T1, human 5-HT2A receptor (Homo sapiens, UniProt P28223); test: 5HT2A Antagonism Assay (Euroscreen FAST-05051), IP-One HTRF
T1 construct: host or cells: CHO-K1
Outline: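 CHO-K1 cells expressing receptor, 20,000/well, co-incubated with test compound and reference agonist at its EC80 for 60 min at 37 °C. IP1 accumulation read by HTRF after ~1 h detection at room temperature. Compounds tested in duplicate at 0.3–10,000 nM.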

human TAAR1 receptors = target: T2, human TAAR1 receptors (Homo sapiens, UniProt Q96RJ0); test: TAAR1 Agonism Assay: cAMP HTRF assay for Gs coupled receptor TAAR1 (Euroscreen FAST-0987C); details: CHO-K1 cells expressing human TAAR1, cAMP HTRF
T2 construct: host or cells: CHO-K1
T2 sequence (Q96RJ0 1-339): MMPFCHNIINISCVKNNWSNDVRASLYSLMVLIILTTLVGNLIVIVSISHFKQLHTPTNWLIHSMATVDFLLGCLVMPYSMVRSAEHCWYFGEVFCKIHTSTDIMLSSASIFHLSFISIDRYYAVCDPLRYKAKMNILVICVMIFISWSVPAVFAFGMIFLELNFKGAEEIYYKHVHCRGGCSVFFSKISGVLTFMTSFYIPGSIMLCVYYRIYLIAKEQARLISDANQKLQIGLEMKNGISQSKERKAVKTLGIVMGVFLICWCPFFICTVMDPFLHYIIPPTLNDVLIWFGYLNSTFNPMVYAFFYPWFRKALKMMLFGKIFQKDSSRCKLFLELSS
Outline: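 cAMP accumulation detected by HTRF fluorescence ratio, reagents added in lysis buffer and incubated 1 h at about room temperature. Beforehand, cells (about 3,000 per well) sat with test compound at ten concentrations from 0.3 to 10,000 nM in duplicate for roughly 30 min at about room temperature; tyramine dose-response run alongside.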

human 5-HT7 receptor = target: T3, human 5-HT7 receptor (Homo sapiens, UniProt P34969); test: 5HT7 Antagonism Assay (Euroscreen FAST-0499C), cAMP HTRF; details: CHO-K1 cells expressing human 5-HT7, reference agonist at EC80, cAMP HTRF
T3 construct: host or cells: CHO-K1
Outline: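 CHO-K1 cells expressing human 5-HT7, 3000 per well in Krebs-Ringer HEPES with 1 mM IBMX, were exposed for 30 minutes at room temperature to compound plus reference agonist at its EC80. cAMP was read by HTRF after 1 hour; compounds were tested in duplicate from 0.3 to 10,000 nM.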

[1] = read-out: 5-HT2A (IC50), CHO-K1 cells expressing human 5-HT2A, reference agonist at EC80, IP-One
[2] = 5-HT2A (IC50), CHO-K1 cells expressing human 5-HT2A, reference agonist at EC80, IP-One
[3] = CHO-K1 cells expressing human 5-HT2A, reference agonist at EC80, IP-One, read-out: 5-HT2A (IC50)

T1 sequence (P28223 whole entry): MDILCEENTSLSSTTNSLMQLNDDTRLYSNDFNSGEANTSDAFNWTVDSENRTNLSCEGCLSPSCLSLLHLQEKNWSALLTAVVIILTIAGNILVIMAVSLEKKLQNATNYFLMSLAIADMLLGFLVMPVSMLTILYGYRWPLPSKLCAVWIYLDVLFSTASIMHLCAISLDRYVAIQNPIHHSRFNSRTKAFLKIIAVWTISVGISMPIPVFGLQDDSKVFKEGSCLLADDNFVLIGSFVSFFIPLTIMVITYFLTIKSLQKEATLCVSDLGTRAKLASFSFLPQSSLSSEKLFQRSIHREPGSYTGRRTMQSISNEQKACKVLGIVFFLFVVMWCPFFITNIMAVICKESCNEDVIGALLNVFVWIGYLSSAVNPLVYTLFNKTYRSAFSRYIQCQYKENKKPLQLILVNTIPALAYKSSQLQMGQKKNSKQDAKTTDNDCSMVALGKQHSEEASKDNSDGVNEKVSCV
T3 sequence (P34969 whole entry): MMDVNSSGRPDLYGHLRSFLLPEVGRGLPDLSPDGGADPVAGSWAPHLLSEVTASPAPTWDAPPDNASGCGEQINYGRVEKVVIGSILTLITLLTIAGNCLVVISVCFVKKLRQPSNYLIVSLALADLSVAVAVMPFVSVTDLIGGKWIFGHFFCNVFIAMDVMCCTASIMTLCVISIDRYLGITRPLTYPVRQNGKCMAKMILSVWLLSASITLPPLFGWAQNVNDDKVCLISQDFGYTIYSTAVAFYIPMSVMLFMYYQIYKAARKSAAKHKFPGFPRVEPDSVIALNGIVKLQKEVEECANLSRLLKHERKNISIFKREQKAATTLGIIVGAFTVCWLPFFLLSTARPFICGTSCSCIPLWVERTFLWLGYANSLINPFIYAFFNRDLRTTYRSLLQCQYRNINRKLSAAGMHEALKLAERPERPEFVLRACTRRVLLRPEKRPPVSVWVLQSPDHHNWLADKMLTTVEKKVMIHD

Structure (SMILES) | IC50 (human 5-HT2A receptor; [1]) | EC50 (human TAAR1 receptors) | IC50 (human 5-HT7 receptor) | IC50 (human 5-HT2A receptor; [2]) | IC50 (human 5-HT2A receptor; [3])
CNCC1Cc2cc(C)ccc2Oc2cccnc21 (single isomer, unassigned) [Compound 131, (R*)—N-methyl-1-(8-methyl-10,11-dihydrobenzo[6,7]oxepino[3,2-b]pyridin-11-yl)methanamine] | < 1000 nM | < 1000 nM | < 1000 nM |  | 
Cc1ccc2c(c1)Oc1cccnc1C(CN)C2 (single isomer, unassigned) [Compound 132, (S*)-(7-methyl-10,11-dihydrobenzo[6,7]oxepino[3,2-b]pyridin-11-yl)methanamine] |  | < 1000 nM | ≥ 10000 nM | > 10000 nM | 
Cc1ccc2c(c1)Oc1cccnc1C(CN)C2 (single isomer, unassigned) [Compound 133, (R*)-(7-methyl-10,11-dihydrobenzo[6,7]oxepino[3,2-b]pyridin-11-yl)methanamine] |  | < 1000 nM | ≥ 10000 nM | 1000 to 10000 nM | 
CNCC1Cc2ccc(C)cc2Oc2cccnc21 (single isomer, unassigned) [Compound 134, (S*)—N-methyl-1-(7-methyl-10,11-dihydrobenzo[6,7]-oxepino[3,2-b]pyridin-11-yl)methanamine] |  | < 1000 nM | 1000 to 10000 nM | < 1000 nM | 
CNCC1Cc2ccc(C)cc2Oc2cccnc21 (single isomer, unassigned) [Compound 135, (R*)—N-methyl-1-(7-methyl-10,11-dihydrobenzo[6,7]oxepino[3,2-b]pyridin-11-yl)methanamine] | < 1000 nM | < 1000 nM | 1000 to 10000 nM |  | 
NCC1Cc2c(F)cccc2Oc2cccnc21 (single isomer, unassigned) [Compound 136, (S*)-(9-fluoro-10,11-dihydrobenzo[6,7]oxepino[3,2-b]pyridin-11-yl)methanamine] |  | < 1000 nM | ≥ 10000 nM | 1000 to 10000 nM | 
NCC1Cc2c(F)cccc2Oc2cccnc21 (single isomer, unassigned) [Compound 137, (R*)-(9-fluoro-10,11-dihydrobenzo[6,7]oxepino[3,2-b]pyridin-11-yl)methanamine] |  | < 1000 nM | ≥ 10000 nM | > 10000 nM | 
CNCC1Cc2c(F)cccc2Oc2cccnc21 (single isomer, unassigned) [Compound 138, (S*)-1-(9-fluoro-10,11-dihydrobenzo[6,7]oxepino[3,2-b]pyridin-11-yl)-N-methylmethanamine] |  | < 1000 nM | ≥ 10000 nM | < 1000 nM | 
Cc1cccc2c1CC(CN)c1ncccc1O2 (single isomer, unassigned) [Compound 140, (S*)-(9-methyl-10,11-dihydrobenzo[6,7]oxepino[3,2-b]pyridin-11-yl)methanamine] |  | < 1000 nM | ≥ 10000 nM | > 10000 nM | 
Cc1cccc2c1CC(CN)c1ncccc1O2 (single isomer, unassigned) [Compound 141, (R*)-(9-methyl-10,11-dihydrobenzo[6,7]oxepino[3,2-b]pyridin-11-yl)methanamine] |  | < 1000 nM | ≥ 10000 nM | < 1000 nM | 
CNCC1Cc2c(C)cccc2Oc2cccnc21 (single isomer, unassigned) [Compound 143, (R*)-(9-methyl-10,11-dihydrobenzo[6,7]oxepino[3,2-b]pyridin-11-yl)-N-methylmethanamine] |  | < 1000 nM | ≥ 10000 nM | < 1000 nM | 
NCC1Cc2c(Cl)cccc2Oc2cccnc21 (single isomer, unassigned) [Compound 144, (S*)-(9-chloro-10,11-dihydrobenzo[6,7]oxepino[3,2-b]pyridin-11-yl)methanamine] |  | < 1000 nM | ≥ 10000 nM | < 1000 nM | 
NCC1Cc2c(Cl)cccc2Oc2cccnc21 (single isomer, unassigned) [Compound 145, (R*)-(9-chloro-10,11-dihydrobenzo[6,7]oxepino[3,2-b]pyridin-11-yl)methanamine] | < 1000 nM | < 1000 nM | ≥ 10000 nM |  | 
CNCC1Cc2c(Cl)cccc2Oc2cccnc21 (single isomer, unassigned) [Compound 147, (R*)-(9-chloro-10,11-dihydrobenzo[6,7]oxepino[3,2-b]pyridin-11-yl)-N-methylmethanamine] |  | < 1000 nM | ≥ 10000 nM | < 1000 nM | 
Cc1ccc2c(n1)C(CN)Cc1ccccc1O2 (single isomer, unassigned) [Compound 149, (R*)-(2-methyl-10,11-dihydrobenzo[6,7]oxepino[3,2-b]pyridin-11-yl)methanamine] |  | < 1000 nM | ≥ 10000 nM | < 1000 nM | 
CNCC1Cc2ccccc2Oc2ccc(C)nc21 (single isomer, unassigned) [Compound 150, (R*)-(2-methyl-10,11-dihydrobenzo[6,7]oxepino[3,2-b]pyridin-11-yl)-N-methylmethanamine] |  | < 1000 nM | 1000 to 10000 nM | < 1000 nM | 
CCc1ccc2c(n1)C(CN)Cc1ccccc1O2 (single isomer, unassigned) [Compound 151, (R*)-(2-ethyl-10,11-dihydrobenzo[6,7]oxepino[3,2-b]pyridin-11-yl)methanamine] |  | < 1000 nM | ≥ 10000 nM | < 1000 nM | 
CCc1ccc2c(n1)C(CNC)Cc1ccccc1O2 (single isomer, unassigned) [Compound 152, (R*)-(2-ethyl-10,11-dihydrobenzo[6,7]oxepino[3,2-b]pyridin-11-yl)-N-methylmethanamine] |  | < 1000 nM | 1000 to 10000 nM | < 1000 nM | 
NCC1Cc2c(F)cncc2Oc2ccccc21 (single isomer, unassigned) [Compound 153, (R*)-(4-fluoro-5,6-dihydrobenzo[6,7]oxepino[2,3-c]pyridin-6-yl)methanamine] |  | < 1000 nM | ≥ 10000 nM | < 1000 nM | 
NCC1Cc2c(F)cncc2Oc2ccccc21 (single isomer, unassigned) [Compound 154, (S*)-(4-fluoro-5,6-dihydrobenzo[6,7]oxepino[2,3-c]pyridin-6-yl)methanamine] |  | > 10000 nM | ≥ 10000 nM | 1000 to 10000 nM | 
NCC1Cc2ncccc2Oc2cccc(F)c21 (single isomer, unassigned) [Compound 156, (S*)-(9-fluoro-10,11-dihydrobenzo[6,7]oxepino[3,2-b]pyridin-10-yl)methanamine] |  | < 1000 nM | ≥ 10000 nM | > 10000 nM | 
CNCC1Cc2ncccc2Oc2cccc(F)c21 (single isomer, unassigned) [Compound 158, (S*)-(9-fluoro-10,11-dihydrobenzo[6,7]oxepino[3,2-b]pyridin-10-yl)-N-methylmethanamine] |  | 1000 to 10000 nM | ≥ 10000 nM |  | > 10000 nM
N#Cc1ccc2c(c1)C(CN)Cc1ncccc1O2 (single isomer, unassigned) [Compound 159, (R*)-10-(aminomethyl)-10,11-dihydrobenzo[6,7]-oxepino[3,2-b]pyridine-8-carbonitrile] |  | 1000 to 10000 nM | ≥ 10000 nM | > 10000 nM | 
N#Cc1ccc2c(c1)C(CN)Cc1ncccc1O2 (single isomer, unassigned) [Compound 160, (S*)-10-(aminomethyl)-10,11-dihydrobenzo[6,7]oxepino[3,2-b]pyridine-8-carbonitrile] |  | < 1000 nM | 1000 to 10000 nM | < 1000 nM | 
CNCC1Cc2ncccc2Oc2ccc(C#N)cc21 (single isomer, unassigned) [Compound 161, (R*)-10-((methylamino)methyl)-10,11-dihydrobenzo[6,7]oxepino[3,2-b]pyridine-8-carbonitrile] |  | > 10000 nM | ≥ 10000 nM |  | 1000 to 10000 nM
CNCC1Cc2ncccc2Oc2ccc(C#N)cc21 (single isomer, unassigned) [Compound 162, (S*)-10-((methylamino)methyl)-10,11-dihydrobenzo[6,7]oxepino[3,2-b]pyridine-8-carbonitrile] |  | > 10000 nM | ≥ 10000 nM |  | 1000 to 10000 nM
NCC1Cc2ncccc2Oc2ccc(F)cc21 (single isomer, unassigned) [Compound 163, (R*)-(8-fluoro-10,11-dihydrobenzo[6,7]oxepino[3,2-b]pyridin-10-yl)methanamine] |  | 1000 to 10000 nM | ≥ 10000 nM | 1000 to 10000 nM | 
NCC1Cc2ncccc2Oc2ccc(F)cc21 (single isomer, unassigned) [Compound 164, (S*)-(8-fluoro-10,11-dihydrobenzo[6,7]oxepino[3,2-b]pyridin-10-yl)methanamine] | 1000 to 10000 nM | < 1000 nM | ≥ 10000 nM |  | 
